The values below come from patent US5972894A, “Peptides having potassium channel opener activity” (Cytran, Inc., priority 1997, dated 1999).

One assay deals with Rat Portal Vein. As to the kind of experiment: KCl-induced tonic contraction of rat portal vein smooth muscle specimens. It is filed as cell-based. The procedure:
Spontaneous contraction curve values for each SMS were recorded by making repetitive measurements of the spontaneous contractile activity of each sample at 2, 5, 10, and 15 minutes after the addition of the test or reference substance to each SMS/organ bath. Next, 0.5 ml of a solution of 600 mM solution of KCl in […] in the organ bath until a final concentration of 60 mM KCl was achieved. The contractile activity of each SMS was then measured for 5 minutes.

The test system of the next assay is rats. As to the kind of experiment: CPK activity in blood serum 1 hour after coronary occlusion. It counts as in vivo. Particulars: for CPK Activity in blood serum: 1 hour after coronary occlusion. The procedure: White random-bred male rats weighing approximately 200 g were anesthetized using a light ether administration and then immobilized and artificially ventilated. […] Immediately after ligation, a test substance, positive, control substance, or negative control substance (described below) was administered to a rat through a catheterized femoral vein. Each dose of each test substance or positive or negative control substance was administered to an experimental or control group of 9 test rats. In this study, GE and VT served as test substances, propranolol served as the positive control substance, and physiological saline served as the negative control substance. Each test rat in an experimental group was given a dose of either 0.1, 1.0, or 10.0 milligram GE per kilogram of body weight of the subject animal (mg/kg) or 0.1, 1.0, or 10.0 milligram VT per kilogram of body weight of the animal. Each animal of the positive control group received an intravenous dose of 0.5 mg of β-adrenergic blocking agent, propranolol (Obzidan, Germed, Germany) per kilogram of body weight. Propranolol is commonly used to manage cardiac arrhythmia and there is some evidence that the agent may reduce the extent of ischemic damage to the heart. […] Each animal of the negative control group received physiological saline.
One hour after initiation of the coronary artery occlusion, each test animal was sacrificed, its blood was collected, and the CPK activity in its blood serum was measured. CPK activity was determined by using a standard biochemical method, such as that commercially available from the Lachema Company (Czechia) in its test kit, and by following the manufacturer's process instructions included in the package insert.
As a supplementary control for the possible trauma caused by the surgical procedure, a group of 9 sham-operated rats was included in the study. These test animals were subjected to chest dissection, but not to coronary artery occlusion. These "sham-operated" animals were not treated with any test or control substances and were euthanized 1 hour after surgery. Their blood was then collected for determination of CPK activity.

Residues, ends and D or L forms follow the SMILES beside them.

In the case of `NCC(=O)N[C@@H](CCC(=O)O)C(=O)O` [GE, L-Glycyl-L-Glutamic acid] (H-Gly-Glu-OH), the “Area Under Curve of KCl-Induced Contraction (% of control)” value with Rat Portal Vein (10^-6 g/ml, 60 mM KCl) amounted to 90.26%. For the same molecule, in the assay with Rat Portal Vein (venous smooth muscle specimens), the “effect on tonic contraction induced by KCl” value is “neither GE nor VT effected the character of the tonic contraction”. The “CPK Activity in blood serum” value is listed as 0.062 (±0.013) mcCat/L with rats (0.1 mg/kg i.v.), 0.056 (±0.014) mcCat/L in the assay with rats (1.0 mg/kg i.v.) and 0.110 (±0.024) mcCat/L in the assay on rats (10.0 mg/kg i.v.). In the assay on rats (0.1, 1.0, and 10.0 milligram), the “extent of induced myocardial ischemic lesions (CPK in serum vs negative control)” value is “diminish the extent of induced myocardial ischemic lesions”.
